Here are results for eight molecules from ChEMBL document CHEMBL1151658, “Degradation of Lycorine by Pseudomonas Species Strain ITM 311” (1985).

The subject of assay [1] is Rhodococcus fascians. Description: Antimicrobial activity against Corynebacterium fascians NCPPB 2551 at 0.0001 molarity/paper disk. It is filed as functional, Rhodococcoides fascians.
The test system of assay [2] is Rhodococcus fascians. Nature of the assay: Antimicrobial activity against Corynebacterium fascians NCPPB 2551 at 0.001 molarity/paper disk. It counts as functional, Rhodococcoides fascians.
In assay [3] the test system is Rhodococcus fascians. Description: Antimicrobial activity against Corynebacterium fascians NCPPB 2551 at 0.0005 molarity/paper disk. It is filed as functional, Rhodococcoides fascians.
The test system of assay [4] is Rhodococcus fascians. Nature of the assay: Antimicrobial activity against Corynebacterium fascians NCPPB 2551 at 0.01 molarity/paper disk. It is filed as functional, Rhodococcoides fascians.
For assay [5], the system named is Agrobacterium tumefaciens. Nature of the assay: Antimicrobial activity against Agrobacterium tumefaciens ITM 71 after 48 to 72 hrs by paper disk method. It is filed as functional, organism-based.
The test system of assay [6] is Xanthomonas euvesicatoria. Description: Antimicrobial activity against Xanthomonas campestris pv. vesicatoria NCPPB 1616 after 48 to 72 hrs by paper disk method. It is filed as functional, organism-based.
Assay [7] has as its system Pseudomonas syringae. Description: Antimicrobial activity against Pseudomonas syringae pv. tabaci NCPPB 2730 after 48 to 72 hrs by paper disk method. It counts as functional, organism-based. As to conditions: Pseudomonas amygdali pv. tabaci.
Assay [8] concerns Pseudomonas savastanoi. Description: Antimicrobial activity against Pseudomonas savastanoi ITM 519 after 48 to 72 hrs by paper disk method. It is filed as functional, organism-based.
Assay [9] relates to Pseudomonas coronafaciens. Description: Antimicrobial activity against Pseudomonas coronafaciens NCPPB 2481 after 48 to 72 hrs by paper disk method. It is filed as functional, organism-based.
Assay [10] concerns Pseudomonas syringae. Description: Antimicrobial activity against Pseudomonas syringae pv. maculicola NCPPB 1777 after 48 to 72 hrs by paper disk method. It counts as functional, organism-based.
Assay [11] concerns Pseudomonas. Description: Antimicrobial activity against Pseudomonas ITM 311 after 48 to 72 hrs by paper disk method. It is filed as functional, organism-based.
In assay [12] the test system is Pectobacterium carotovorum. Nature of the assay: Antimicrobial activity against Erwinia carotovora subsp. carotovora NCPPB ITM 180 after 48 to 72 hrs by paper disk method. It is filed as functional, organism-based.
Assay [13] has as its system Pseudomonas cichorii. Nature of the assay: Antimicrobial activity against Pseudomonas cichorii NCPPB 2379 after 48 to 72 hrs by paper disk method. It counts as functional, organism-based.
The subject of assay [14] is Priestia megaterium. Description: Antimicrobial activity against Bacillus megaterium ITM 80 after 48 to 72 hrs by paper disk method. It is filed as functional, organism-based.
Assay [15] concerns Curtobacterium flaccumfaciens. Nature of the assay: Antimicrobial activity against Corynebacterium flaccumfaciens NCPPB 559 after 48 to 72 hrs by paper disk method. It is filed as functional, organism-based.
Assay [16] has as its system Pseudomonas syringae. Description: Antimicrobial activity against Pseudomonas syringae pv. syringae NCPPB ITM24 after 48 to 72 hrs by paper disk method. It counts as functional, organism-based.
Assay [17] has as its system Pseudomonas syringae. Nature of the assay: Antimicrobial activity against Pseudomonas syringae pv. tomato NCPPB 2563 after 48 to 72 hrs by paper disk method. It is filed as functional, organism-based.

Calls of active or inactive are those of the source. The calls are words filed in the database; no cut-off is given here.

`O[C@H]1[C@H]2c3cc4c(cc3CN3CCC(=C[C@@H]1O)[C@H]23)OCO4` [LYCORINE]: the “inhibition zone (IZ)” value in [1], in assay [2], in assay [3] and in assay [4] was 0 mm each time.

With `Oc1ccc2c3c1c1cc4c(cc1c[n+]3CC2)OCO4.[Cl-]`, the “inhibition zone (IZ)” value in [1] is recorded as 0 mm; in [2], 7 mm; in [3], 0 mm; in assay [4], 10 mm.

`[O-]c1cc2c3c(c1)c1cc4c(cc1c[n+]3CC2)OCO4` [UNGEREMINE]: the outcome in assay [5], in [6], in assay [7], in [8], in assay [9] and in [10] was Active. Moreover, the outcome in assay [12], in assay [13], in assay [14], in assay [15], in assay [16] and in assay [17] was Active. Besides, the “inhibition zone (IZ)” value came to 0 mm in [1], 14 mm in assay [2], 0 mm in [3] and 15 mm in assay [4]. For the same molecule, in [11], the outcome was inactive.

In the case of `c1cc2c3c(c1)-c1cc4c(cc1CN3CC2)OCO4` [ANHYDROLYCORINE], the “inhibition zone (IZ)” value came out at 0 mm in [1], 25 mm in assay [2], 15 mm in assay [3] and 25 mm in assay [4].

Turning to `Oc1cc2c3c(c1)c1cc4c(cc1c[n+]3CC2)OCO4.[Cl-]`, the “inhibition zone (IZ)” value in [1], in assay [2], in [3] and in assay [4] was 0 mm throughout.

On to `O=c1c2cc3c(cc2c2cccc4c2n1CC4)OCO3`, for which the “inhibition zone (IZ)” value in assay [1] is recorded as 0 mm; in [2] it was 12 mm; in assay [3], 9 mm; in assay [4], 25 mm.

As to `O=C1N[C@@H]2C(=C[C@H](O)[C@@H](O)[C@H]2O)c2cc3c(c(O)c21)OCO3` [NARCICLASINE], the “inhibition zone (IZ)” value in assay [1], in [2], in assay [3] and in assay [4] was 0 mm in each case.

Turning to `[Cl-].c1cc2c3c(c1)c1cc4c(cc1c[n+]3CC2)OCO4` [ANHYDROLYCORINIUM CHLORIDE], the result in assay [5], in [6], in [7], in assay [8], in [9] and in assay [10] was Active. In addition, the result in assay [12], in [13], in assay [14], in [15], in assay [16] and in assay [17] was Active. Moreover, the “inhibition zone (IZ)” value in [1] was 10 mm; in assay [2], 24 mm; in assay [3], 16 mm; in assay [4], 30 mm. Besides, the outcome in assay [11] was inactive.
